Values after ≈ are worked out from the molar mass of the structure shown.
Columns and labels:
HIV-1 strain NL4.3 = experiment: Anti-HIV-1 assay in MT-4 cells (p24 Ag ELISA, Example 3); type: cell-based; conditions: MT-4 cells; for IC50: Human immunodeficiency virus 1, MT4, read-out: IC50 HIV-1 (NL4.3), p24 Ag ELISA
Method: Antiviral Assays. For HIV-1, MT-4 cells were infected with the HIV-1 strain NL4.3. Briefly, five-fold dilutions of the compounds (in 100 μl) were added to 96-well flat bottom plates (Iwaki, Japan). Then, to each well, 7.5×10^4 MT-4 cells were added in 50 μl medium, followed by 50 μl of diluted HIV-1 stock (strain NL4.3). Cytopathic effect (CPE) induced by the virus was checked regularly microscopically. When strong CPE was observed (after 3 to 5 days of incubation) in untreated HIV-1 infected cells, the supernatant was collected, stored at −20° C. and analyzed for HIV-1 core antigen by p24 Ag ELISA (NEN™, PerkinElmer Life Sciences, Boston, Mass.). Finally, the IC50 value of the compounds (i.e., the concentration of the compound required for 50% reduction of HIV infection as measured by viral p24 antigen level in the supernatant of infected MT-4 cells) was calculated.

HHV-7 (KHR strain) [1] = experiment: Anti-HHV-7 assay in SupT1 cells (antigen expression, flow cytometry, Example 3); type: cell-based; conditions: SupT1 cells; for IC50: SUP-T1, read-out: IC50 HHV-7 (50% reduction of HHV-7 antigen expression)
Method: For HHV-7, five-fold dilutions of the compounds were added in 500 μl culture medium in 24-well flat bottom plates (Iwaki, Japan), whereupon 2×10^5 SupT1 cells were added in 400 μl culture medium. After 30 min incubation at room temperature, 100 μl of HHV-7 stock was added to each well. HHV-7-infected and mock-infected SupT1 cells were cultured in a final volume of 1 ml medium in the absence of the compounds. On day 4, half of the medium and the cells were replaced and fresh medium without new compound was added. This procedure was repeated every 2 or 3 days. The CPE was checked regularly microscopically. When CPE was observed, the HHV-7 antigen expression was monitored by flow cytometry, as described previously (Zhang, Y. et al. (1999) “Selective activity of various antiviral compounds against HHV-7 infection Antiviral Res. 43, 23-35.)

MT-4 cells = experiment: Cytotoxicity assay (trypan blue exclusion, propidium iodide); type: cell-based, human
Method: (§1) Cytotoxicity Assay. Cellular toxicity of the compounds was measured by trypan blue exclusion and also by Propidium Iodide by flow cytometry after 3 or 4 days of incubation, in parallel with the CD4 antigen expression. The CC50 value of each CADA analog is the concentration (in μg/ml) required to reduce the viability of the cells by 50%.

SupT1 cells = experiment: as above; type: cell-based, human
Method: as §1

CD4 [2] = biological target: T1, CD4 (Homo sapiens, UniProt P01730); experiment: CD4 down-modulation, flow cytometry with FITC-conjugated anti-CD4 (SK3) mAb, MT-4 cells; type: cell-based; parameters: To study the effect of the CADA derivatives on surface CD4 antigen expression, MT-4 and SupT1 cells were incubated; endogenous in cells; host or cells: MT-4, SupT1, PBMC; conditions: for IC50: read-out: IC50 CD4 (50% inhibition of extracellular CD4 expression) (converted)
Method: Flow Cytometric Analyses. To study the effect of the CADA derivatives on surface CD4 antigen expression, MT-4 and SupT1 cells were incubated with a serial 5-fold dilution of the compounds (50, 10, 2, 0.4 and 0.08 μg/ml) or medium at 37° C. […] Briefly, after washing with phosphate-buffered saline (PBS) containing 2% fetal calf serum (FCS), cells were incubated with FITC-conjugated anti-CD4 (SK3) mAb for 30 min at 4° C. As a negative control for a specific background staining, cells were stained in parallel with Simultest Control γ1/γ^2a (Becton Dickinson). Then the cells were washed, fixed with 1% formaldehyde and analyzed by flow cytometry in a FACScalibur (Becton Dickinson, San Jose, Calif., USA). Data were acquired and analyzed with CellQuest software (Becton Dickinson). For the calculation of the CD4 receptor expression, the mean fluorescence intensity (MFI) of each sample was expressed as percentage of the MFI of control cells (after subtracting the MFI of the isotype control). Finally, the IC50 value of the compounds (i.e., the concentration of the compound required for 50% inhibition of extracellular CD4 expression) was calculated.

CD4 [3] = biological target: T1, CD4; experiment: CD4 down-modulation, flow cytometry with FITC-conjugated anti-CD4 (SK3) mAb, SupT1 cells; type: cell-based; parameters: To study the effect of the CADA derivatives on surface CD4 antigen expression, MT-4 and SupT1 cells were incubated; endogenous in cells; host or cells: MT-4, SupT1, PBMC; conditions: for IC50: day 4, read-out: IC50 CD4 (50% inhibition of extracellular CD4 expression) (converted)
Method: Flow Cytometric Analyses. To study the effect of the CADA derivatives on surface CD4 antigen expression, MT-4 and SupT1 cells were incubated with a serial 5-fold dilution of the compounds (50, 10, 2, 0.4 and 0.08 μg/ml) or medium at 37° C. Cell surface CD4 antigen expression was analyzed at day 3 (MT-4) or day 4 (SupT1). Briefly, after washing with phosphate-buffered saline (PBS) containing 2% fetal calf serum (FCS), cells were incubated with FITC-conjugated anti-CD4 (SK3) mAb for 30 min at 4° C. As a negative control for a specific background staining, cells were stained in parallel with Simultest Control γ1/γ^2a (Becton Dickinson). Then the cells were washed, fixed with 1% formaldehyde and analyzed by flow cytometry in a FACScalibur (Becton Dickinson, San Jose, Calif., USA). Data were acquired and analyzed with CellQuest software (Becton Dickinson). For the calculation of the CD4 receptor expression, the mean fluorescence intensity (MFI) of each sample was expressed as percentage of the MFI of control cells (after subtracting the MFI of the isotype control). Finally, the IC50 value of the compounds (i.e., the concentration of the compound required for 50% inhibition of extracellular CD4 expression) was calculated.

HHV-7 (KHR strain) [4] = experiment: Anti-HHV-7 assay (HHV-7 antigen expression, flow cytometry, day 12); type: cell-based; conditions: SUP-T1, read-out: IC50 for HHV-7 infection
Method: The antiviral activity of CADA against HIV-1 and RHV-7 was investigated. PBMCs and […] cell-depleted PBMCs (removed with CD8 magnetic beads; Dynal AS, Oslo, Norway), previously activated with purified PHA (2 μg/ml) and rhIL-2 (1 ng/ml) for 3 days, were pelleted and exposed to HIV-1 (1 ng p24 Ag per 10^6 cells) for 2 hours at 370C. Then the cells were washed three times with warm medium and cultured in complete medium containing rhIL-2 (1 ng/ml) in the presence or absence of different concentrations of CADA hydrochloride. The anti-HIV-1 assays were also performed in MT-4 and SupT1 cells. CADA hydrochloride was diluted in the plates, then the MT-4 cells or SupT1 cells were added and finally the T-tropic HIV-1 strains. The supernatant was collected at day 5 for MT-4 cells, day 8 for SupT1 cells and day 12 for PBMCs, and stored at −20° C. and analyzed for HIV-1 core antigen by p24 Ag ELISA (NEN, Brussels, Belgium). The SupT1 cells were refreshed on day 4, and half of the medium and cells were replaced and fresh CADA-free medium was added. For the PBMCs, fresh culture medium was added at day 6 containing rhIL-2 (but no CADA). For the anti-HHV-7 assays in PBMCs, CADA hydrochloride was diluted in a plate, 2×10˜cells were added and then HHV-7 (KHR strain) was added in complete medium containing rhIL-2 (1 ng/ml). Fresh culture medium was added again at day 6 containing rhIL-2 (but no CADA). The same infection protocol was used for the SupT1 cells, but without rhIL-2. The SupT1 cells were refreshed on day 4 and day 8, half of the medium and the cells were replaced, and fresh medium without CADA was added. The HHV-7 antigen expression was monitored (at day 12) with a specific mAb to HHV-7 (RK-4) (Advanced Biotechnologies, Columbia, Md.) by flow cytometry, as described previously (Thang, Y., et al., Antiviral Res. 43:23-35 (1999)).

[5] = Cytotoxic concentration (Example 2); type: cell-based; conditions: human, MT-4 cells; read-out: CC50
[6] = Cytotoxic concentration (Example 2); type: cell-based; conditions: human, SupT1 cells; read-out: CC50
HIV-1 and HHV-7 = experiment: Selectivity index (ratio of CC50 to IC50), antiviral assays; type: cell-based; conditions: over the viruses and cell types tested
Method: The IC50 of CADA against the CCR5-using (R5) HIV-1 strain BaL was 0.8 μM in PBMCs. […] The IC50 of PMA for the HIV-1 strains (IIIB, RF and NL4.3) in MT-4 cells was about 0.3 nM, and the IC50 for HHV-7 infection in SupT1 cells was 0.6 nM.

CD4 [7] = biological target: T1, CD4; experiment: Cell surface CD4 expression by flow cytometry (anti-CD4 mAb Leu3a-PE); type: cell-based; parameters: To study the effect of the CADA derivatives on surface CD4 antigen expression, MT-4 and SupT1 cells were incubated; endogenous in cells; host or cells: MT-4, SupT1, PBMC; conditions: for percentage of cell surface CD4 expression: SupT1 cells, ATA 24 μM, CADA 16 μM, PMA 8 nM (FIG. 4)
Method: FIGS. 2A-2C. Surface CD4 expression in MT-4 cell line, SupT1 cell line and PBMCs after incubation with CADA hydrochloride (3.2 or 16 μM) for 1 and 4 days. (A) Cell surface CD4 expression of control MT-4 cells and MT-4 cells treated with CADA (3.2 μM) for 1 day or 4 days. (B) Cell surface CD4 expression of control SupT1 cells and SupT1 cells treated with CADA (3.2 μM) for 1 day or 4 days. (C) Cell surface CD4 expression of control PBMCs and PBMCs treated with CADA (16 μM) for 1 day or 4 days. The cells were stained with anti-CD4 mAb (Leu3a-PE). Percentages of fluorescent cells and MFI (mean fluorescence intensity) are indicated in each histogram.
FIG. 4. Comparison of the effects on CD4 modulation by ATA (24 μM), CADA hydrochloride (16 μM) and PMA (8 nM) in SupT1 cells after incubation with the compounds analyzed after 20 minutes, 4 hours, 1 day and 4 days.
Cells were incubated with CADA hydrochloride and the CD4 expression on the cell surface was analyzed. […] In peripheral blood mononuclear cells (PBMCs), the percentage of CD4 expression decreased to 0.2% after incubation with CADA (16 μM) for 4 days (FIG. 2).
Expression of various other surface antigens was also examined in MT-4 cells, SupT1 cells and PBMCs after incubation with CADA (16 μM) or CADA-free medium at 37° C. for 4 days. After washing with phosphate-buffered saline (PBS) containing 2% FCS(fetal calf serum), the cells were incubated with mAb (as indicated in Table 1) for 20 min at 4° C. Then the cells were washed, fixed with 1% formaldehyde and analyzed by flow cytometry. All mAbs were purchased from Becton-Dickinson (Erembodegem, Belgium).
CADA was compared with ATA and PMA with regard to their down-modulating effects. […] At day 4, the CD4 expression in SupT1 cells treated with CADA reduced to 1.2%.

[8] = Cytotoxicity assay (trypan blue exclusion, propidium iodide); type: cell-based, human; conditions: human, read-out: CC50 (50% cytotoxic concentration)
Method: as §1

SMILES: C=C1CN(S(=O)(=O)c2ccc(C)cc2)CCCN(Cc2cccnc2)CCCN(S(=O)(=O)c2ccc(C)cc2)C1 [AS-N6P6]
- IC50 HIV-1 (NL4.3), p24 Ag ELISA (HIV-1 strain NL4.3): 2.38 µg/mL (≈ 4.08 µM)
- IC50 HHV-7 (50% reduction of HHV-7 antigen expression) (HHV-7 (KHR strain) [1]): 1.50 µg/mL
- CC50 (50% cytotoxic concentration) (MT-4 cells): 21.4 µg/mL (≈ 36.7 µM)
- CC50 (50% cytotoxic concentration) (SupT1 cells): >50 µg/mL
- IC50 CD4 (50% inhibition of extracellular CD4 expression) (CD4 [2]; MT-4 cells, day 3): 3.22 µg/mL
- CD4 down-modulating activity, fold less active than CADA (CD4 [2]; compared to CADA, MT-4 cells (stated for some compounds)): 7 fold
- IC50 CD4 (50% inhibition of extracellular CD4 expression) (CD4 [3]; day 4): 4.27 µg/mL

SMILES: CCCCCCCCCCCCCC(=O)O[C@@H]1[C@@H](C)[C@@]2(O)[C@@H](C=C(CO)C[C@]3(O)C(=O)C(C)=C[C@@H]23)[C@@H]2C(C)(C)[C@]12OC(C)=O [PMA, Phorbol myristate acetate, reference compound]
- IC50 (HHV-7 (KHR strain) [4]): 0.0006 µM
- CC50 [5]: 0.0021 µM
- CC50 [6]: 0.0015 µM
- selectivity index (SI), ratio of CC50 to IC50 (HIV-1 and HHV-7): 2-7
- percentage of cell surface CD4 expression (CD4 [7]; 20 minutes): only a slight CD4 decrease
- percentage of cell surface CD4 expression (CD4 [7]; 4 hours): dramatically decreased
- percentage of cell surface CD4 expression (CD4 [7]; 1 day): almost undetectable
- percentage of cell surface CD4 expression (CD4 [7]; 4 days): 81.6%

SMILES: C=C1CN(S(=O)(=O)c2ccc(C)cc2)CCCN(C2CCCC2)CCCN(S(=O)(=O)c2ccc(C)cc2)C1 [QJ040]
- IC50 (HIV-1 strain NL4.3): 4.23 µg/mL (≈ 7.56 µM)
- IC50 (HHV-7 (KHR strain) [1]): 1.55 µg/mL (≈ 2.77 µM)
- CC50 ([8]; MT-4 cells): 17 µg/mL (≈ 30.4 µM)
- CC50 ([8]; SupT1 cells): 20.5 µg/mL (≈ 36.6 µM)
- down-regulation of CD4 expression (in words) (CD4 [7]): down-regulate CD4 expression
- IC50 (CD4 [2]; MT-4 cells, day 3): 9.54 µM
- IC50 (CD4 [3]): 14.1 µM

SMILES: C=C1CN(S(=O)(=O)c2ccc(C)cc2)CCCN(CC2CC2)CCCN(S(=O)(=O)c2ccc(C)cc2)C1 [QJ041]
- IC50 (HIV-1 strain NL4.3): 3.66 µg/mL (≈ 6.71 µM)
- IC50 (HHV-7 (KHR strain) [1]): 1.76 µg/mL (≈ 3.22 µM)
- CC50 ([8]; MT-4 cells): 18.6 µg/mL (≈ 34.1 µM)
- CC50 ([8]; SupT1 cells): 21.9 µg/mL (≈ 40.1 µM)
- down-regulation of CD4 expression (in words) (CD4 [7]): down-regulate CD4 expression
- IC50 (CD4 [2]; MT-4 cells, day 3): 6.38 µM
- CD4 down-modulating activity compared with CADA or parent analog (in words) (CD4 [2]; structure-activity discussion of Table 5 (MT-4 and SupT1 cells)): reduced the activity
- IC50 (CD4 [3]): 7.6 µM
